From patent publication US8158668B2, “Methods for treating CNS disorders with 4-imidazole derivatives” (Hoffmann-La Roche Inc., priority 2006, dated 2012)

Biological target: T1, mouseTAAR1 (Mus musculus, UniProt Q923Y8)
T1 construct: expressed in transfected cells; host or cells: HEK293 (ATCC #CRL-1573), stably transfected with pIRESneo2 expression plasmid; membrane preparation
Experiment: Radioligand binding on membranes of HEK293 cells stably expressing TAAR1
Settings: not given
Method: For the construction of expression plasmids the coding sequences of human, rat and mouse TAAR 1 were amplified from genomic DNA essentially as described by Lindemann et al.. The Expand High Fidelity PCR System (Roche Diagnostics) was used with 1.5 mM Mg^2+ and purified PCR products were cloned into pCR2.1-TOPO cloning vector (Invitrogen) following the instructions of the manufacturer. PCR products were subcloned into the pIRESneo2 vector (BD Clontech, Palo Alto, Calif.), and expression vectors were sequence verified before introduction in cell lines.
For the generation of stably transfected cell lines HEK293 cells were transfected with the pIRESneo2 expression plasmids containing the TAAR coding sequences (described above) with Lipofectamine 2000 (Invitrogen) according to the instructions of the manufacturer, and 24 hrs post transfection the culture medium was supplemented with 1 mg/ml G418 (Sigma, Buchs, Switzerland). After a culture period of about 10 d clones were isolated, expanded and tested for responsiveness to trace amines (all compounds purchased from Sigma) with the cAMP Biotrak Enzyme immunoassay (EIA) System (Amersham) following the non-acetylation EIA procedure provided by the manufacturer.
Cells at confluence were rinsed with ice-cold phosphate buffered saline without Ca^2+ and Mg^2+ containing 10 mM EDTA and pelleted by centrifugation at 1000 rpm for 5 min at 4° C. The pellet was then washed twice with ice-cold phosphate buffered saline and cell pellet was frozen immediately by immersion in liquid nitrogen and stored until use at −80° C. Cell pellet was then suspended in 20 ml HEPES-NaOH (20 mM), pH 7.4 containing 10 mM EDTA, and homogenized with a Polytron (PT 3000, Kinematica) at 10,000 rpm for 10 s. The homogenate was centrifuged at 48,000×g for 30 min at 4° C. and the pellet resuspended in 20 ml HEPES-NaOH (20 mM), pH 7.4 containing 0.1 mM EDTA (buffer A), and homogenized with a Polytron at 10,000 rpm for 10 s. The homogenate was then centrifuged at 48,000×g for 30 min at 4° C. and the pellet resuspended in 20 ml buffer A, and homogenized with a Polytron at 10,000 rpm for 10 s. Protein concentration was determined by the method of Pierce (Rockford, Ill.). The homogenate was then centrifuged at 48,000×g for 10 min at 4° C., resuspended in HEPES-NaOH (20 mM), pH 7.0 including MgCl2 (10 mM) and […] homogenized with a Polytron at 10,000 rpm for 10 s.
Binding assay was performed at 4° C. in a final volume of 1 ml, and with an incubation time of 30 min. […] Competing ligands were tested in a wide range of concentrations (10 pM-30 μM). […] Each experiment was performed in duplicate. All incubations were terminated by rapid filtration through UniFilter-96 plates (Packard Instrument Company) and glass filter GF/C, pre-soaked for at least 2 h in polyethylenimine 0.3%, and using a Filtermate 96 Cell Harvester (Packard Instrument Company). The tubes and filters were then washed 3 times with 1 ml aliquots of cold buffer B. Filters were not dried and soaked in Ultima gold (45 μl/well, Packard Instrument Company) and bound radioactivity was counted by a TopCount Microplate Scintillation Counter (Packard Instrument Company).

T1 sequence (Q923Y8 whole entry): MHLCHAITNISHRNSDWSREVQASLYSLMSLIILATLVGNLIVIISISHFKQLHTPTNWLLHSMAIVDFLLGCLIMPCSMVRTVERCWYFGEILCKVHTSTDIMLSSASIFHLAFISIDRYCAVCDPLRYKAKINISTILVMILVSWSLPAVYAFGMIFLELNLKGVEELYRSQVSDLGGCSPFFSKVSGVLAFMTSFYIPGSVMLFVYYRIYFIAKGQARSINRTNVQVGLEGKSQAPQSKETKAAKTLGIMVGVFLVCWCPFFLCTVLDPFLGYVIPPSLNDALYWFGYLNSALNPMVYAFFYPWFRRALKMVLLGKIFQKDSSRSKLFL

`CCCC(c1ccccc1)c1c[nH]cn1` (racemic) [Example 1, rac-4-(1-Phenyl-butyl)-1H-imidazole] and `CCC(c1ccccc1)c1cnc[nH]1` (racemic) [Example 5, rac-4-(1-Phenyl-propyl)-1H-imidazole] are within 1.5-fold of each other in Ki: 0.049 µM for the first, 0.036 µM for the second.

First: CC(c1cnc[nH]1)c1ccccc1F (racemic) [Example 2, rac-4-[1-(2-Fluoro-phenyl)-ethyl]-1H-imidazole]
Second: CCC(c1cnc[nH]1)c1ccccc1F (racemic) [Example 6, rac-4-[1-(2-Fluoro-phenyl)-propyl]-1H-imidazole]
The Ki of the first is 1.8-fold lower: 0.012 µM for the first, 0.022 µM for the second.

`CCC(c1cc(F)cc(F)c1)c1cnc[nH]1` (racemic) [Example 4, rac-4-[1-(3,5-Difluoro-phenyl)-propyl]-1H-imidazole] and `CCC(c1cccc(F)c1)c1cnc[nH]1` (racemic) [Example 7, rac-4-[1-(3-Fluoro-phenyl)-propyl]-1H-imidazole] are within 1.5-fold of each other in Ki: 0.028 µM for the first, 0.032 µM for the second.

Going from `CC(c1ccccc1)c1cnc[nH]1` (racemic) [Example 14, rac-4-(1-Phenyl-ethyl)-1H-imidazole] to `CC(c1cccc(F)c1)c1cnc[nH]1` (racemic) [Example 15, rac-4-[1-(3-Fluoro-phenyl)-ethyl]-1H-imidazole], the Ki rises from 0.004 µM to 0.019 µM (4.8-fold).

`CC(c1cnc[nH]1)c1cccc(F)c1F` (racemic) [Example 17, rac-4-[1-(2,3-Difluoro-phenyl)-ethyl]-1H-imidazole] and `C[C@@H](c1cnc[nH]1)c1cccc(F)c1F` [Example 46, 4-[(R)-1-(2,3-Difluoro-phenyl)-ethyl]-1H-imidazole] are within 1.5-fold of each other in Ki: 0.011 µM for the first, 0.0078 µM for the second.

`CCC(c1cnc[nH]1)c1cccc(F)c1F` (racemic) [Example 20, rac-4-[1-(2,3-Difluoro-phenyl)-propyl]-1H-imidazole] and `CCc1cccc(F)c1Cc1cnc[nH]1` [Example 78, 4-(2-Ethyl-6-fluoro-benzyl)-1H-imidazole] are within 1.5-fold of each other in Ki: 0.018 µM for the first, 0.0179 µM for the second.

Compared with `CC(c1c[nH]cn1)c1cccc2ccccc12` (racemic) [Example 40, rac-4-(1-Naphthalen-1-yl-ethyl)-1H-imidazole], `c1ccc2cc(Cc3c[nH]cn3)ccc2c1` [Example 39, 4-Naphthalen-2-ylmethyl-1H-imidazole] is 9.7-fold higher in Ki: 0.003 µM for the first, 0.029 µM for the second. The first binds more tightly here.

Going from `Fc1cccc(Cl)c1Cc1cnc[nH]1` [Example 12, 4-(2-Chloro-6-fluoro-benzyl)-1H-imidazole] to `Clc1cccc(Cl)c1Cc1cnc[nH]1` [Example 33, 4-(2,6-Dichloro-benzyl)-1H-imidazole], the Ki falls from 0.019 µM to 0.003 µM (6.3-fold).

`CCc1cccc(CC)c1Cc1cnc[nH]1` [Example 26, 4-(2,6-Diethyl-benzyl)-1H-imidazole] and `CCc1cccc(C)c1Cc1cnc[nH]1` [Example 57, 4-(2-Ethyl-6-methyl-benzyl)-1H-imidazole] are within 1.5-fold of each other in Ki: 0.01 µM for the first, 0.0108 µM for the second.

Going from `Brc1ccccc1Cc1cnc[nH]1` [Example 27, 4-(2-Bromo-benzyl)-1H-imidazole] to `c1cc(Cc2cnc[nH]2)c2occc2c1` [Example 51, 4-Benzofuran-7-ylmethyl-1-imidazole], the Ki falls from 0.034 µM to 0.0093 µM (3.7-fold). The second binds more tightly here.

First: Cc1cccc(C)c1Cc1cnc[nH]1 [Example 29, 4-(2,6-Dimethyl-benzyl)-1H-imidazole]
Second: CCc1cccc(Cl)c1Cc1cnc[nH]1 [Example 61, 4-(2-Chloro-6-ethyl-benzyl)-1H-imidazole]
The Ki of the first is 2.9-fold lower: 0.004 µM for the first, 0.0115 µM for the second.

First: Cc1cc(C)c(C)c(Cc2cnc[nH]2)c1C [Example 31, 4-(2,3,5,6-Tetramethyl-benzyl)-1H-imidazole]
Second: CCc1cc(OC)cc(CC)c1Cc1cnc[nH]1 [Example 69, 4-(2,6-Diethyl-4-methoxy-benzyl)-1H-imidazole]
The Ki of the first is 6.2-fold higher: 0.016 µM for the first, 0.0026 µM for the second.

Compared with `CC(C)(c1ccccc1)c1cnc[nH]1` [Example 41, 5-(1-methyl-1-phenyl-ethyl)-1H-imidazole trifluoro-acetate], `Cc1ccc2ccccc2c1Cc1cnc[nH]1` [Example 572, 4-(2-Methyl-naphthalen-1-ylmethyl)-1H-imidazole] is 8.2-fold lower in Ki: 0.0461 µM for the first, 0.0056 µM for the second. The second binds more tightly here.

Going from `Brc1cc(Cc2c[nH]cn2)c2occc2c1` [Example 49, 4-(5-Bromo-benzofuran-7-ylmethyl)-1-imidazole] to `c1cc2c(c(Cc3cnc[nH]3)c1)OCC2` [Example 50, 4-(2,3-Dihydro-benzofuran-7-ylmethyl)-1-imidazole], the Ki rises from 0.0009 µM to 0.0202 µM (22-fold). The first binds more tightly here.

Compared with `CCc1cccc(C2CC2)c1Cc1cnc[nH]1` [Example 58, 4-(2-Cyclopropyl-6-ethyl-benzyl)-1H-imidazole], `CCc1ccc(OC)c(CC)c1Cc1cnc[nH]1` [Example 70, 4-(2,6-Diethyl-3-methoxy-benzyl)-1H-imidazole] is 2.6-fold lower in Ki: 0.0098 µM for the first, 0.0038 µM for the second. The second binds more tightly here.

`Clc1ccc(Oc2cccc(Cc3cnc[nH]3)c2)cc1` [Example 60, 4-[3-(4-Chloro-phenoxy)-benzyl]-1H-imidazole] and `c1ccc(-c2cccc(Cc3cnc[nH]3)c2)cc1` [Example 71, 4-Biphenyl-3-ylmethyl-1H-imidazole] are within 1.5-fold of each other in Ki: 0.0276 µM for the first, 0.0391 µM for the second.

Compared with `c1ccc(-c2ccccc2Cc2cnc[nH]2)cc1` [Example 67, 4-Biphenyl-2-ylmethyl-1H-imidazole], `CCc1ccc(Oc2ccccc2)c(CC)c1Cc1cnc[nH]1` [Example 80, 4-(2,6-Diethyl-3-phenoxy-benzyl)-1H-imidazole] is 2-fold lower in Ki: 0.0276 µM for the first, 0.0139 µM for the second.

Compared with `CCOc1cc(CC)c(Cc2cnc[nH]2)c(CC)c1` [Example 72, 4-(4-Ethoxy-2,6-diethyl-benzyl)-1H-imidazole], `CCOc1ccc(CC)c(Cc2cnc[nH]2)c1CC` [Example 74, 4-(3-Ethoxy-2,6-diethyl-benzyl)-1H-imidazole] is 3.4-fold lower in Ki: 0.0127 µM for the first, 0.0037 µM for the second. The second binds more tightly here.

Compound `CCc1cc(Oc2ccccc2)cc(CC)c1Cc1cnc[nH]1` [Example 79, 4-(2,6-Diethyl-4-phenoxy-benzyl)-1H-imidazole] has a Ki of 0.0056 µM.

Same assay, conditions: mouseTAAR1; competition with [3H]-rac-2-(1,2,3,4-tetrahydro-1-naphthyl)-2-imidazoline, 4° C., 30 min; read-out: Ki

Compared with `Cc1cccc(Cc2c[nH]cn2)c1C` [Example 25, 4-(2,3-Dimethyl-benzyl)-1H-imidazole, reference compound], `CCc1cc(OCc2ccccc2)cc(CC)c1Cc1cnc[nH]1` [Example 73, 4-(4-Benzyloxy-2,6-diethyl-benzyl)-1H-imidazole] is 3.7-fold lower in Ki: 0.043 µM for the first, 0.0117 µM for the second.
